Results: patent US8263631B2, “Anti-cancer pharmaceutical compositions and methods for treating patients with cancer” (Daiichi Sankyo Company, Limited, priority 2006, dated 2012)
Marks after values point to notes of the source that are not given here.

Tests used:
[1] = system: human non-small-cell lung cancer line A549; assay: In vitro cell proliferation inhibitory activity, combination with EGFR inhibitor; conditions: Compound X 10 μM alone, A549, 7 days
Description: Human non-small-cell lung cancer line A549 cells (purchased from American Tissue Culture Collection) were cultured using 10% fetal bovine serum (Hyclone Laboratories, Inc.)-RPMI (Invitrogen Corporation). A549 cells were inoculated on a 96-well plate at 5×10^2 cells/well, and at the same time, the agents of various concentrations dissolved in DMSO were added so that the concentration of DMSO became 0.1%. […] After the addition of the drugs, cells were cultivated in the presence of 5% carbon dioxide at 37° C. for 7 days. Then, Cell Titer 96 Aqueous One Solution Reagent (Promega Corp.) was added at 40 μl/well each, followed by 2 hours of cultivation. Absorbance A490 of each well was measured using MICROPLATE READER (Bio-Rad Laboratories, Inc.).

[2] = system: human leukemia cell line HL-60; assay: Cell proliferation inhibitory activity against human leukemia cell (Cell Titer 96); assay type: cell-based; conditions: 5 days
[3] = system: human colon cancer line WiDr; assay: In vivo anti-tumor activity against human colon cancer cells (WiDr tumor-bearing nude mouse); conditions: once a day, 5 times per week
Text: In the experiment, human colon cancer line WiDr (purchased from American Type Culture Collection), in which it was confirmed that no mouse pathogenic microorganism was detected by quarantine, was transplanted to a subcutaneous axillary portion of a nude mouse BALB/cA Jcl-nu (CLEA Japan, Inc.), to subculture a tumor. The tumor was cut into small pieces of 5 mm size, and was transplanted to a right subcutaneous axillary portion of a BALB/cA Jcl-nu mouse by using a troker (CLEA Japan, Inc.). The required amounts of Compounds X and Y were each weighed and were dissolved in N,N-dimethylacetamide (DMA: Wako Pure Chemical Industries, Ltd.), and 5% Emulphor 620 (GAF Corporation)-saline (Otsuka Pharmaceutical Co., Ltd.) was then added to the mixtures in small amounts, so that the concentrations of the compounds were each adjusted to 0.2, 1 or 5 mg/mL. Here, DMA was made to have a final concentration of 2.5%. […] Twice a week, the major axis and the minor axis of the transplanted tumor were measured using digital micrometer calipers (MAX-CAL MAX-15: Nihon Sokutei Kougu Kabusiki Kaisha), and tumor proliferation inhibitory activity was obtained from the following calculation formula and expressed as the tumor volume inhibition rate. Average tumor volume in each test group (mm^3)=½×(minor axis)^2 (mm^2)×(major axis) (mm) Tumor volume inhibition rate (%)={1−(average tumor volume of drug administration group/average tumor volume of drug non-administration group)}×100
Evaluation of anti-tumor activity of each of the drug administration groups was determined by the tumor volume inhibition rate. In addition, a statistical difference test was determined by conducting Students' t test with respect to the tumor the volume of drug non-administration control group and the drug administration group 38 days after transplantation.

[4] = system: human leukemia cell line THP-1; assay: Cell proliferation inhibitory activity against human leukemia cell (Cell Titer 96); assay type: cell-based; conditions: 5 days
[5] = system: human non-small-cell lung cancer line A549; assay: In vivo anti-tumor activity against non-small-cell lung cancer (A549 tumor-bearing nude mouse); conditions: Compound X alone, 1 mg/mL, 0.1 mL per 10 g orally, once a day, 5 times per week, day 14 to 60
Description: In the experiment, human non-small-cell lung cancer line A549 (purchased from American Type Culture Collection), in which it was confirmed that no mouse pathogenic microorganism was detected by quarantine, was transplanted to a subcutaneous axillary portion of a nude mouse BALB/cA Jcl-nu (CLEA Japan, Inc.), to subculture a tumor. The tumor was cut into small pieces of 5 mm size, and transplanted to a right subcutaneous axillary portion of a BALB/cA Jcl-nu mouse by using a troker (CLEA Japan, Inc.). […] Twice a week, the major axis and the minor axis of the transplanted tumor were measured using digital micrometer calipers (MAX-CAL MAX-15: Nihon Sokutei Kougu Kabusiki Kaisha), and tumor proliferation inhibitory activity was obtained from the following calculation formula and expressed as the tumor volume inhibition rate. […]
Evaluation of anti-tumor activity for each of the drug administration groups was determined by the tumor volume inhibition rate. In addition, a statistical difference test was determined by conducting Students' t test with respect to tumor volume of the drug non-administration control group and the drug administration group 63 days after transplantation.

[6] = system: MKN74, MKN28, ZR-75-1, SBC-1, AsPC-1, DU-145, ACHN, D341 Med, A-204, RD-ES, SW872, U266 cancer cell lines; assay: Evaluation of cancer cell proliferation inhibitory activity (sulforhodamine B staining, absorbance A490); assay type: cell-based, human; conditions: 0.1, 1 or 10 μM (AsPC-1: 0.05, 0.5 or 5 μM), 7 days (U266: 4 days); all cancer cell lines, FIGS. 1-3
Text: Human gastric cancer cell line (MKN74, MKN28) purchased from Immuno-Biological Laboratories Co., Ltd., human breast cancer cell line (ZR-75-1), small-cell lung cancer line (SBC-1), pancreatic cancer cell line (AsPC-1), prostate cancer cell line (DU-145), kidney cancer cell line (ACHN), medulloblastoma line (D341 Med), human sarcoma cell line (rhabdomyosarcoma line A-204, Ewing's sarcoma line RD-ES, liposarcoma line SW872) and multiple myeloma line (U266) that were purchased from […] were used in the test. […]
To the control group was added only DMSO so that its concentration became 0.1%. […] 10 mM Tris was added at […] to each well in which cancer cells were immobilized and stained, and absorbance A490 of each well was measured using MICROPLATE READER Model 3550 (Bio-Rad Laboratories, Inc.). […]
In each of the graphs, the longitudinal axis represents the absorbance [%], and the horizontal axis represents the concentration of Compound X [μM].

[7] = system: human kidney cancer line SN12-PM6; assay: In vivo anti-tumor activity against human kidney cancer (SN12-PM6 tumor-bearing nude mouse); conditions: 0.1 mL per 10 g orally, once a day, 5 times per week, day 10 to 56
Text: In the experiment, human kidney cancer line SN12-PM6 (provided by Professor Seiji Naito of Kyushu University), in which it was confirmed that no mouse pathogenic microorganism was detected by quarantine, was transplanted to a subcutaneous axillary portion of a nude mouse BALB/cA Jcl-nu (CLEA Japan, Inc.), to subculture a tumor. The tumor was cut into small pieces in a size of 5 mm, and transplanted to a right subcutaneous axillary portion of a BALE/cA Jcl-nu mouse by using a troker (CLEA Japan, Inc.). […] Subsequently, distilled water (Otsuka Pharmaceutical Factory, Inc.) was added so that the final concentrations of ethanol and cremophor became each 12.5%. […] Twice a week, the major axis and the minor axis of the transplanted tumor were measured using digital micrometer calipers (MAX-CAL MAX-15: Nihon Sokutei Kougu Kabusikikaisha), and tumor proliferation inhibitory activity was obtained from the following calculation formula and expressed as the tumor volume inhibition rate. […]
Evaluation of anti-tumor activity for each of the drug administration group was determined by the tumor volume inhibition rate. In addition, a statistical difference test was determined by conducting Students' t test with respect to the tumor volumes of the drug non-administration control group and the drug administration group 59 days after transplantation.

[8] = system: human non-small-cell lung cancer line A549; assay: In vitro cell proliferation inhibitory activity, combination with VEGFR and Raf kinase inhibitor; assay type: cell-based; conditions: Compound X 10 μM alone, A549, 6 days
Description: Human non-small-cell lung cancer line A549 cells were inoculated on a 96-well plate at 5×10^2 cells/well, and at the same time, agents of various concentrations dissolved in DMSO were added so that the concentration of DMSO became 0.1%. […] After addition of the drugs, the cells were cultivated in the presence of 5% carbon dioxide at 37° C. for 6 days. Then, Cell Titer 96 Aqueous One Solution Reagent (Promega Corp.) was added at 40 μl/well each, and then absorbance A490 of each well was measured using MICROPLATE READER (Bio-Rad Laboratories, Inc.).

[9] = 2 mg/kg orally, determined on Day 35, Exp. 2
[10] = 10 mg/kg orally, determined on Day 35, Exp. 2
[11] = 50 mg/kg orally, determined on Day 35, Exp. 1
[12] = 50 mg/kg orally, determined on Day 35, Exp. 2

Row | SMILES | Cell proliferation inhibition rate [1] [%] | HL-60 Proliferation inhibition rate ([2]; Compound X 10 μM) [%] | HL-60 Proliferation inhibition rate ([2]; Compound X 25 μM) | HL-60 Proliferation inhibition rate ([2]; Compound X 50 μM) | Tumor volume inhibition rate [3, 9] | Tumor volume inhibition rate [3, 10] | Tumor volume inhibition rate [3, 11] | Tumor volume inhibition rate [3, 12] | THP-1 Proliferation inhibition rate ([4]; Compound X 10 μM) [%] | THP-1 Proliferation inhibition rate ([4]; Compound X 25 μM) [%] | THP-1 Proliferation inhibition rate ([4]; Compound X 50 μM) | Tumor volume inhibition rate [5] [%] | cancer cell proliferation inhibitory activity (absorbance % of DMSO control) [6] | Tumor volume inhibition rate ([7]; Compound X alone, 0.3 mg/mL) [%] | Proliferation inhibition rate [8] [%] | Tumor volume inhibition rate ([7]; sorafenib alone, 10 mg/mL) [%]
1 | Cc1cc(Oc2ccc3nc(COc4ccc(CC5SC(=O)NC5=O)cc4)n(C)c3c2)cc(C)c1N.Cl.Cl (centres unmarked) [Compound X, 5-(4-(6-(4-Amino-3,5-dimethyl-phenoxy)-1-methyl-1H-benzimidazol-2-ylmethoxy)-benzyl)-thiazolidine-2,4-dione.dihydrochloride] | 12 | 23 | 27* % | 45** % | 31* % | 35* % | 49* % | 38* % | 7 | 20 | 48** % | 33 | significant proliferation inhibitory activity | 37 | 15 | 
2 | CC(C)Nc1cccc(Oc2ccc3nc(COc4ccc(CC5SC(=O)NC5=O)cc4)n(C)c3c2)c1.Cl.Cl (centres unmarked) [Compound Y, 5-(4-(6-(3-Isopropylamino-phenoxy)-1-methyl-1H-benzimidazol-2-ylmethoxy)-benzyl)-thiazolidine-2,4-dione.dihydrochloride] |  |  |  |  | 26* % | 32* % | 35* % | 40* % |  |  |  |  |  |  |  | 
3 | CNC(=O)c1cc(Oc2ccc(NC(=O)Nc3ccc(Cl)c(C(F)(F)F)c3)cc2)ccn1 [Sorafenib, sorafenib, reference compound] |  |  |  |  |  |  |  |  |  |  |  |  |  |  |  | 43
